Data as given in patent US5981521A, “Tetrahydroisoquinoline derivatives as LHRH antagonists” (Abbott Laboratories, priority 1998, dated 1999).
Structures can show the parent of a compound that is named as a salt.

Each compound was assayed against T1, LHRH rat pituitary receptor (Rattus norvegicus, UniProt P30969) (assay: LHRH rat pituitary receptor binding). Conditions: Table 1: compounds of formula (V), by n and R1.
T1 construct: from tissue; host or cells: rat pituitary
T1 sequence (P30969 1-327): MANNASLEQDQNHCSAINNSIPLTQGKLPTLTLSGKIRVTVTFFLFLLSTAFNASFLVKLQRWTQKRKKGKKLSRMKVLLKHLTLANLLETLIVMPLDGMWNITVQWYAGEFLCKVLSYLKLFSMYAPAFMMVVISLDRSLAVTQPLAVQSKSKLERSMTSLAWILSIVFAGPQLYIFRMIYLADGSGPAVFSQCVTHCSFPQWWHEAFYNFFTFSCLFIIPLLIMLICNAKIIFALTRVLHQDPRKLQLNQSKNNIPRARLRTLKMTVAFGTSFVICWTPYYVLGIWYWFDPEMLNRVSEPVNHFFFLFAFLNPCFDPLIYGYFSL
Protocol: Representative compounds of the present invention were evaluated in vitro for potency against for LHRH rat pituitary receptor binding [pK, ]. Methods for the assay procedures are 10 described in […] al. J Med. Chem., 32: 2340-2344 (1989). Values of pK, are the negative logarithms of the equilibrium dissociation constant of the particular antagonist test compound for the receptor binding. […] Leuprolide LHRH agonist, disclosed and claimed in U.S. Pat. No. 4,005, 063, has the structure 5-oxo-[…].

Row | SMILES | Ki [nM]
1 | COc1cc2c(cc1OC)C(CCCCNC(=O)c1cccnc1)N(CCCC(CCCNC(=O)CCc1ccc(F)cc1)(c1ccccc1)c1ccccc1)CC2 (stereo not drawn) [Example 35, 7-[N-3-(4-Fluorophenyl)propionyl]amino-1-[N-(1,2,3,4-tetrahydro-1-(4-N-nicotinylamino)-butyl-6,7-dimethoxyisoguinolinyll-4,4-diphenylheptane hydrochloride] | 2.45
2 | COc1cc2c(cc1OC)C(CCCCNC(C)c1ccccc1)N(CCCC(CCCNC(=O)CCc1ccc(F)cc1)(c1ccccc1)c1ccccc1)CC2 (stereo not drawn) [Example 31, 7-[N-3-(4-Fluorophenyl)prol)ionyl]amino-1-[N-(1,2,3,4-tetrahydro-1-(4-(N-alpha-methylbenzylamino)butyl-6,7-dimethoxyisoguinolinyl)]-4,4-diphenylheptane dihydrochloride] | 3.98
3 | COc1cc2c(cc1OC)C(C1CCC(CN)CC1)N(CCCC(CCCNC(=O)CCc1ccc(F)cc1)(c1ccccc1)c1ccccc1)CC2 (stereo not drawn) [Example 37, 7-[N-3-(4-Fluorophenyl)propionyl]-1-[N-(1,2,3,4-tetrahydro-1-(4-aminomethylcyclohexyl)-6,7-dimethoxyisoquinolinyl)1-4.4-diphenylheptanedihydrochloride] | 3.98
4 | COc1ccc(CC2c3cc(OC)c(OC)cc3CCN2CCCC(CCCNC(=O)CCc2ccc(F)cc2)(c2ccccc2)c2ccccc2)cc1 (stereo not drawn) [Example 19, 7-[N-3-(4-Fluorophenyl)propionyl]amino-1-[N-(1,2,3,4-tetrahydro-1-(4-methoxybenzyl)-6,7-dimethoxyisoguinolinyl)1-4.4-diphenylheptane hydrochloride] | 5.89
5 | COc1cc2c(cc1OC)C(C1CCCC1)N(CCCC(CCCNC(=O)CCc1ccc(F)cc1)(c1ccccc1)c1ccccc1)CC2 (stereo not drawn) [Example 8, 7-[N-3-(4-Fluorophenyl)propionyl]amino-1-[N-(1,2,3,4-tetrahydro-1-cyclopentyl-6.7-dimethoxyisoguinolinyl)]-4,4-diphenylheptane hydrochloride] | 0.389
6 | COc1cc2c(cc1OC)C(CCc1ccccc1)N(CCCC(CCCNC(=O)CCc1ccc(F)cc1)(c1ccccc1)c1ccccc1)CC2 (stereo not drawn) [Example 20, 7-[N-3-(4-Fluorophenyl)propionyl]amino-1-[N-(1,2,3,4-tetrahydro-1-phenethyl-6,7-dimethoxy - isoguinolinyl)]-4,4-diphenylheptane hydrochloride] | 25.1

Continued, values first:

Row | Ki [nM] | SMILES
7 | 70.8 | COc1cc2c(cc1OC)C(C)N(CCC(CCCNC(=O)CCc1ccc(F)cc1)(c1ccccc1)c1ccccc1)CC2 (stereo not drawn) [Example 44]
8 | 0.186 | COc1cc2c(cc1OC)C(CCCCN)N(CCCC(CCCNC(=O)CCc1ccc(F)cc1)(c1ccccc1)c1ccccc1)CC2 (stereo not drawn) [Example 25, 7-[N-3-(4-Fluorophenyl)propional]-1-[N-(1,2,3,4-tetrahydro-1-(4-aminobutyl)-6,7-dimethoxyisoquinolinyl)]-4,4-diphenylhentane dihydrochloride]
9 | 0.135 | COc1cc2c(cc1OC)C(C1CC1)N(CCCC(CCCNC(=O)CCc1ccc(F)cc1)(c1ccccc1)c1ccccc1)CC2 (stereo not drawn) [Example 4, 7-[N-3-(4-Fluorolphenyl)Propionyl]1-[N-(1,2,3,4-tetrahydro-1-cyclopropyl-6.7-dimethoxyisoquinolinyl)]-4,4-diphenylheptane hydrochloride]

Same assay, conditions: Table 2: compounds of formula (VI), by isoquinolinyl moiety R

Row | SMILES | Ki [nM] | pKI
10 | CC(=O)Oc1cc2c(cc1OC(C)=O)C(C)N(CCCC(CCCNC(=O)CCc1ccc(F)cc1)(c1ccccc1)c1ccccc1)CC2 (stereo not drawn) [Example 58, 7-[N-3-(4-Fluorophenyl)propionyl]-1-[N-(1,2,3,4-tetrahydro-1-methYI-6,7-diacetoxyisoquinolinyl)]-4,4-dilhenylheptane] | 12.3 | 
11 | CC(=O)Nc1ccc2c(c1)C(C)N(CCCC(CCCNC(=O)CCc1ccc(F)cc1)(c1ccccc1)c1ccccc1)CC2 (stereo not drawn) [Example 55, 7-[N-3-(4-Fluorophenyl)propionyl]-1-[N-(1,2,3,4-tetrahydro-l-methyl-7-acetylamino-isoquinolinyl)1-4.4-diphenylheptane hydrochloride] | 8.71 | 
12 | CC1c2cc(O)c(O)cc2CCN1CCCC(CCCNC(=O)CCc1ccc(F)cc1)(c1ccccc1)c1ccccc1 (stereo not drawn) [Example 46, 7-[N-3-(4-Fluorophenyl)propionyl]-1-UN-(1,2,3,4-tetrahydro-1-methyl-6,7-dihydroxyisoguinolinyl)1-4.4-diphenylheptane hydrochloride] | 15.5 | 
13 | CC1c2cc3c(cc2CCN1CCCC(CCCNC(=O)CCc1ccc(F)cc1)(c1ccccc1)c1ccccc1)OCO3 (stereo not drawn) [Example 48, 7-[N-3-(4-Fluorophenyl)propionyl]-1-[N-(1,2,3,4-tetrahydro-1-methyl-6,7-dioxalane-isoquinolinyl)1-4,4-diphenylheptane hydrochloride] | 10 | 
14 | CC1c2cc3c(cc2CCN1CCCC(CCCNC(=O)CCc1ccc(F)cc1)(c1ccccc1)c1ccccc1)OCCO3 (stereo not drawn) [Example 49, 7-[N-3-(4-Fluorophenyl)propionyl]amino-1-[N-(1,2,3,4-tetrahydro-1-methyl-6,7-dioxane-isoguinolinyl)1-4.4-diphenylheotane hydrochloride] |  | 7.90
15 | COc1cc2c(cc1OC)C(C)(C)N(CCCC(CCCNC(=O)CCc1ccc(F)cc1)(c1ccccc1)c1ccccc1)CC2 [Example 67, 7-[N-3-(4-Fluorophenyl)propionyl]-1-[N-(1,2,3,4-tetrahydro-1.1-dimethyl-6,7-dimethoxyisoguinolinyl)1-4.4-diphenylheptane hydrochloride] | 2.51 | 
16 | CC1c2cc(F)c(Cl)cc2CCN1CCCC(CCCNC(=O)CCc1ccc(F)cc1)(c1ccccc1)c1ccccc1 (stereo not drawn) [Example 57, 7-[N-3-(4-Fluorophenyl)propionyl]-1-[N-(1,2,3,4-tetrahydro-1-methyl-6-chloro-7-fluoroisoquinolinyl)1-4.4-diphenylheptane hydrochloride] |  | 8.60

Continued, values first:

Row | Ki [nM] | pKI | SMILES
17 | 0.617 |  | COc1cc2c(cc1OC)CN(CCCC(CCCNC(=O)CCc1ccc(F)cc1)(c1ccccc1)c1ccccc1)C(C)C2 (stereo not drawn) [Example 66, 7-[N-3-(4-Fluorophenyl)propionyl]-1-[N-(1,2,3,4-tetrahydro-3-mekyl-6,7-dimethoxyisoguinolinyl)]-4,4-diphenylheptane hydrochloride]
18 | 0.501 |  | COc1cc2c(cc1C)CCN(CCCC(CCCNC(=O)CCc1ccc(F)cc1)(c1ccccc1)c1ccccc1)C2C (stereo not drawn) [Example 62, 7-[N-3-(4-Fluorophenyl)propionyl]-1-[N-(1,2,3,4-tetrahydro-1.6-dimethyl-7-methoxyisoquinolinyl)1-4.4-diphenylhelptane hydrochloride]
19 | 3.72 |  | COc1cc2c(cc1Br)C(C)N(CCCC(CCCNC(=O)CCc1ccc(F)cc1)(c1ccccc1)c1ccccc1)CC2 (stereo not drawn) [Example 61, 7-[N-3-(4-Fluorophenyl)propionyl]-1-[N-(1,2,3,4-tetrahydro-1-methyl-6-methoxy-7-bromoisoguinolinyl)1-4.4-diphenylheptane hydrochloride]

Same assay, conditions: Table 3: compounds of formula (VII), by substituent R'

Row | Ki [nM] | SMILES
20 | 3.16 | COc1cc2c(cc1OC)C(C)N(CCCC(CCCNC(=O)CCc1ccccc1)(c1ccccc1)c1ccccc1)CC2 (stereo not drawn) [Example 72]
21 | 0.195 | COc1cc2c(cc1OC)C(C)N(CCCC(CCCNC(=O)CCc1ccc(Cl)cc1)(c1ccccc1)c1ccccc1)CC2 (stereo not drawn) [Example 79, 7-[N-3-(4-chlorophenol)propionyl]amino-1-[N-(I .2.3,4-tetrahydro-1-methyl-6,7-dimethoxyisoguinolinyl)1-4,4-diphenylheptane hydrochloride]
